Patent US12331056B2, “SHP2 phosphatase inhibitors and methods of use thereof” (Relay Therapeutics, Inc., priority 2018, dated 2025)
Counter-ions that a name gives are not always drawn.

Biological target: T1, SHP2 (Homo sapiens, UniProt Q06124)
T1 sequence (Q06124 1-593): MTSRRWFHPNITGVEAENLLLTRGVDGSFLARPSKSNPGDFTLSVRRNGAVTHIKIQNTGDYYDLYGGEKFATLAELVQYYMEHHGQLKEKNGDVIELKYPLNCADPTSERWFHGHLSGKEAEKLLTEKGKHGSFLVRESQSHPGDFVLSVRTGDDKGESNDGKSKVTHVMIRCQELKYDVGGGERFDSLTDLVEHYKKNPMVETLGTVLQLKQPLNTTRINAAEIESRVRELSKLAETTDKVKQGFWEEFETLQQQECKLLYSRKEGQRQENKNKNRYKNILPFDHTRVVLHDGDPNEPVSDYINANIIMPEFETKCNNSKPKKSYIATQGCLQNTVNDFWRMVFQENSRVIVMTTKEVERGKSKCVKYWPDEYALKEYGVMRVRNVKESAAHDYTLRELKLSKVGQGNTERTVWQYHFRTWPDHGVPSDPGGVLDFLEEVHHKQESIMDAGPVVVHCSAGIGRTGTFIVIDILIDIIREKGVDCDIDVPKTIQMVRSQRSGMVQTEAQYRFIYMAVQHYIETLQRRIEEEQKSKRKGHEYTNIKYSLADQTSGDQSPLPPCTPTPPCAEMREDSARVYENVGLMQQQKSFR
Assay: SHP2 allosteric inhibition assay (DiFMUP prompt fluorescence)
Format: biochemical
Settings: 0.25 nM SHP2 activated with 0.5 μM peptide IRS1_pY1172(dPEG8)pY1222; substrate DiFMUP 100 μM

IC50 [nM] | SMILES
50 to 1000 | Cc1nc(N2CCC3(CC2)Cc2ccccc2[C@@H]3N)c(CO)nc1-c1cccc(Cl)c1Cl (single isomer, unassigned) [Example 19]
50 to 1000 | N[C@H]1c2ccccc2CC12CCN(c1cnc3c(-c4ccnc(Cl)c4F)n[nH]c3n1)CC2 (single isomer, unassigned) [Example 66]
1000 to 10000 | N#Cc1cccc2c1CC1(CCN(c3cnc4c(N5CCCc6ncccc65)n[nH]c4n3)CC1)[C@H]2N (single isomer, unassigned) [Example 116]
1000 to 10000 | N[C@@H]1c2ccccc2C[C@]12CC[C@@H](c1cnc3c(N4CCCc5ncccc54)n[nH]c3n1)CC2 (single isomer, unassigned) [Example 191, (1r, 3′S, 4S)-4-[3-(1,2,3,4-tetrahydro-1,5-naphthyridin-1-yl)-1H-pyrazolo[3,4-b]pyrazin-6-yl]-1′,3′-dihydrospiro[cyclohexane-1,2′-inden]-3′-amine]
> 10000 | C[C@H](O)c1nc(Sc2ccnc(Cl)c2Cl)cnc1N1CCC2(CC1)Cc1ccccc1[C@H]2N (single isomer, unassigned) [Example 260]
1000 to 10000 | N[C@@H]1c2ccccc2C[C@]12CC[C@H](c1cnc(Sc3ccnc(Cl)c3Cl)cn1)CC2 (single isomer, unassigned) [Example 275, (1s, 3′S, 4R)-4-{5-[(2,3-dichloropyridin-4-yl)sulfanyl]pyrazin-2-yl}-1′,3′-dihydrospiro[cyclohexane-1,2′-inden]-3′-amine]
50 to 1000 | NC1c2ccccc2CC12CCC(c1cnc(SCC3CC3)cn1)CC2 (single isomer, unassigned) [Example 284, (1s, 1′R, 4S)-4-(5-((cyclopropylmethyl)thio)pyrazin-2-yl)-1′,3′-dihydrospiro[cyclohexane-1,2′-inden]-1′-amine]
< 50 | C[C@H](C(=O)N1CCC2(CC1)Cc1ccccc1[C@H]2N)c1ccc(F)cc1 (single isomer, unassigned) [Example 290]
50 to 1000 | Nc1nccc(Sc2ncc(N3CCC4(CC3)Cc3ccccc3[C@H]4N)cn2)c1Cl [Example 63]
50 to 1000 | Cn1cnc2c(N3CCC4(CC3)Cc3ccccc3[C@H]4N)nccc21 [Example 184]
> 10000 | N[C@@H]1c2ccccc2C[C@@]12C[C@H]1CC[C@@H](C2)N1c1cnc2c(N3CCCc4ncccc43)n[nH]c2n1 [Example 227]
> 10000 | Nc1nccc(Sc2cnc(N3[C@@H]4CC[C@H]3C[C@]3(Cc5ccccc5[C@H]3N)C4)cn2)c1Cl [Example 231]
< 50 | Nc1nccc(Sc2cnc(N3[C@@H]4CC[C@H]3C[C@]3(C4)Oc4ccccc4[C@H]3N)cn2)c1Cl [Example 232]
< 50 | Cc1cnc2sc(N3CCC4(CC3)Cc3ccccc3[C@H]4N)nn12 [Example 293, (S)-1′-(5-methylimidazo[2,1-b][1,3,4]thiadiazol-2-yl)-1,3-dihydrospiro[indene-2,4′-piperidin]-1-amine]

SMILES | IC50 [nM]
CC(C)Sc1cnc(N2CCC3(CC2)Cc2ccccc2[C@H]3N)cn1 [Example 248, (3S)-1′-[5-(propan-2-ylsulfanyl)pyrazin-2-yl]-1,3-dihydrospiro[indene-2,4′-piperidin]-3-amine] | < 50
N[C@@H]1c2ccccc2CC12CCN(c1ccc(SCC3CC3)nc1)CC2 [Example 272, (S)-1′-(6-((cyclopropylmethyl)thio)pyridin-3-yl)-1,3-dihydrospiro[indene-2,4′-piperidin]-1-amine formate] | < 50
